Source: PubChem BioAssay AID248 (DTP/NCI, 2004)
Several values for one entry are separate records, joined by “and”; a condition that tells them apart may be missing. Equal entries are not always repeated. Toxic doses and inconclusive results are not listed.

Test system: L1210 leukemia ip in BDF1 mice, survival T/C
Experiment: NCI In Vivo Anticancer Drug Screen. Data for tumor model L1210 Leukemia (intraperitoneal) in B6D2F1 (BDF1) mice
Settings: endpoint: mean survival time, higher = longer survival
Outline: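 Survival endpoint. Drug-treated group vs vehicle group, expressed as T divided by C. Tumor passaged by transplantation.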

[1] = dose: 50.0 mg/kg/injection, schedule: Q04DX003 (ip), vehicle: saline with Tween-80
[2] = dose: 100.0 mg/kg/injection, schedule: Q04DX003 (ip), vehicle: saline with Tween-80
[3] = dose: 200.0 mg/kg/injection, schedule: Q04DX003 (ip), vehicle: saline with Tween-80
[4] = dose: 100.0 mg/kg/injection, schedule: Q01DX001 (ip), vehicle: saline
[5] = dose: 200.0 mg/kg/injection, schedule: Q01DX001 (ip), vehicle: saline
[6] = dose: 400.0 mg/kg/injection, schedule: Q01DX001 (ip), vehicle: saline
[7] = dose: 100.0 mg/kg/injection, schedule: Q04DX003 (ip), vehicle: Klucel (hydroxypropylcellulose) (HPC)
[8] = dose: 200.0 mg/kg/injection, schedule: Q04DX003 (ip), vehicle: Klucel (hydroxypropylcellulose) (HPC)
[9] = dose: 400.0 mg/kg/injection, schedule: Q04DX003 (ip), vehicle: Klucel (hydroxypropylcellulose) (HPC)
[10] = dose: 100.0 mg/kg/injection, schedule: Q01DX001 (ip), vehicle: carboxymethylcellulose (CMC)
[11] = dose: 100.0 mg/kg/injection, schedule: Q01DX009 (ip), vehicle: saline with Tween-80
[12] = dose: 200.0 mg/kg/injection, schedule: Q01DX009 (ip), vehicle: saline with Tween-80
[13] = dose: 100.0 mg/kg/injection, schedule: Q01DX001 (ip), vehicle: saline with Tween-80
[14] = dose: 200.0 mg/kg/injection, schedule: Q01DX001 (ip), vehicle: saline with Tween-80
[15] = dose: 400.0 mg/kg/injection, schedule: Q01DX001 (ip), vehicle: saline with Tween-80

For `O=[N+]([O-])c1ccc(NC2CCCCC2)c2c1no[n+]2[O-]`, the T/C [1] was 100 % of control, the T/C [2] was 100 % of control and the T/C [3] was 118 % of control.
`COC(=O)C=P(c1ccccc1)(c1ccccc1)c1ccccc1` was tested, and the T/C (dose: 75.0 mg/kg/injection, schedule: Q01DX001 (ip), vehicle: carboxymethylcellulose (CMC)) was 98 % of control, the T/C (dose: 150.0 mg/kg/injection, schedule: Q01DX001 (ip), vehicle: carboxymethylcellulose (CMC)) was 98 % of control and the T/C (dose: 300.0 mg/kg/injection, schedule: Q01DX001 (ip), vehicle: carboxymethylcellulose (CMC)) was 101 % of control.
For `Clc1ccc(OCc2ccccc2)c(Cl)c1`, the T/C (dose: 100.0 mg/kg/injection, schedule: Q04DX002 (ip), vehicle: Klucel (hydroxypropylcellulose) (HPC)) was 106 % of control, the T/C (dose: 200.0 mg/kg/injection, schedule: Q04DX002 (ip), vehicle: Klucel (hydroxypropylcellulose) (HPC)) was 106 % of control and the T/C (dose: 400.0 mg/kg/injection, schedule: Q04DX002 (ip), vehicle: Klucel (hydroxypropylcellulose) (HPC)) was 95 % of control.
In the case of `Cc1ccc(S(=O)(=O)CCCCCl)cc1`, the T/C [4] is reported as 101 % of control, the T/C (dose: 100.0 mg/kg/injection, schedule: Q01DX009 (ip), vehicle: saline) is reported as 100 % of control and the T/C (dose: 100.0 mg/kg/injection, schedule: Q04DX003 (ip), vehicle: saline) is reported as 95 % of control. The T/C [5] was 96 % of control, the T/C (dose: 200.0 mg/kg/injection, schedule: Q01DX009 (ip), vehicle: saline) was 97 % of control and the T/C (dose: 200.0 mg/kg/injection, schedule: Q04DX003 (ip), vehicle: saline) was 92 % of control. For the same molecule, the T/C [6] was 104 % of control, the T/C (dose: 400.0 mg/kg/injection, schedule: Q01DX009 (ip), vehicle: saline) was 89 % of control and the T/C (dose: 400.0 mg/kg/injection, schedule: Q04DX003 (ip), vehicle: saline) was 98 % of control.
With `Cc1ccc(NC(=O)Nc2c(C)n(C)n(-c3ccccc3)c2=O)c([N+](=O)[O-])c1` the T/C [7] was 94 % of control, the T/C [8] was 91 % of control and the T/C [9] was 91 % of control.
For `CCOC(=O)/C=C1\CCCc2ccc(Cl)cc21`, the T/C (dose: 50.0 mg/kg/injection, schedule: Q04DX002 (ip), vehicle: saline with Tween-80) was 111 % of control, the T/C (dose: 100.0 mg/kg/injection, schedule: Q04DX002 (ip), vehicle: saline with Tween-80) was 101 % of control and 104 % of control and the T/C (dose: 200.0 mg/kg/injection, schedule: Q04DX002 (ip), vehicle: saline with Tween-80) was 101 % of control. For the same molecule, the T/C (dose: 400.0 mg/kg/injection, schedule: Q04DX002 (ip), vehicle: saline with Tween-80) was 101 % of control.
In the case of `CCN(CC)CCCC(C)Nc1nc(/C=C/c2ccc(Cl)cc2)nc(Cl)c1-c1ccc(Cl)cc1` (configuration not stated), the T/C [4] is reported as 89 % of control, the T/C [7] is reported as 95 % of control and the T/C [5] is reported as 88 % of control. For the same molecule, the T/C [8] was 101 % of control, the T/C [6] was 96 % of control and the T/C [9] was 104 % of control.
In the case of `CCS(=O)(=O)c1ccc(NC(=O)Oc2cc(C)ccc2C(C)C)cc1`, the T/C [10] is reported as 91 % of control, the T/C (dose: 200.0 mg/kg/injection, schedule: Q01DX001 (ip), vehicle: carboxymethylcellulose (CMC)) is reported as 96 % of control and the T/C (dose: 400.0 mg/kg/injection, schedule: Q01DX001 (ip), vehicle: carboxymethylcellulose (CMC)) is reported as 94 % of control.
With `O=c1ccc2ccccc2n1Cc1ccc2ccccc2n1` the T/C (dose: 12.5 mg/kg/injection, schedule: Q01DX001 (ip), vehicle: acetone) was 100 % of control, the T/C (dose: 12.5 mg/kg/injection, schedule: Q04DX003 (ip), vehicle: saline) was 96 % of control and the T/C (dose: 25.0 mg/kg/injection, schedule: Q01DX001 (ip), vehicle: acetone) was 92 % of control. For the same molecule, the T/C (dose: 25.0 mg/kg/injection, schedule: Q04DX003 (ip), vehicle: saline) was 91 % of control, the T/C (dose: 50.0 mg/kg/injection, schedule: Q01DX001 (ip), vehicle: acetone) was 95 % of control and the T/C (dose: 50.0 mg/kg/injection, schedule: Q04DX003 (ip), vehicle: saline) was 96 % of control. The T/C (dose: 75.0 mg/kg/injection, schedule: Q04DX003 (ip), vehicle: saline) was 95 % of control, the T/C (dose: 100.0 mg/kg/injection, schedule: Q01DX001 (ip), vehicle: other) was 97 % of control and the T/C [11] was 104 % of control. For the same molecule, the T/C (dose: 100.0 mg/kg/injection, schedule: Q04DX003 (ip), vehicle: other) was 109 % of control, the T/C (dose: 115.0 mg/kg/injection, schedule: Q04DX003 (ip), vehicle: saline) was 90 % of control and the T/C (dose: 200.0 mg/kg/injection, schedule: Q01DX001 (ip), vehicle: other) was 100 % of control. The T/C [12] was 95 % of control, the T/C (dose: 200.0 mg/kg/injection, schedule: Q04DX003 (ip), vehicle: other) was 104 % of control and the T/C (dose: 400.0 mg/kg/injection, schedule: Q01DX001 (ip), vehicle: other) was 94 % of control. For the same molecule, the T/C (dose: 400.0 mg/kg/injection, schedule: Q01DX009 (ip), vehicle: saline with Tween-80) was 101 % of control and the T/C (dose: 400.0 mg/kg/injection, schedule: Q04DX003 (ip), vehicle: other) was 104 % of control.
For `CCOC(=O)c1ccc(N(CC(S)CNc2cc(C)nc(N)n2)S(=O)(=O)c2ccc(C)cc2)cc1` (configuration not stated), the T/C (dose: 25.0 mg/kg/injection, schedule: Q01DX001 (ip), vehicle: saline) was 95 % of control and the T/C (dose: 50.0 mg/kg/injection, schedule: Q01DX001 (ip), vehicle: saline) was 90 % of control.
`CC(=O)OC1=C(CC=C(C)C)C(=O)c2ccccc2C1=O` was tested, and the T/C (dose: 50.0 mg/kg/injection, schedule: Q01DX001 (ip), vehicle: water) was 97 % of control, the T/C (dose: 100.0 mg/kg/injection, schedule: Q01DX001 (ip), vehicle: water) was 95 % of control and the T/C (dose: 200.0 mg/kg/injection, schedule: Q01DX001 (ip), vehicle: water) was 100 % of control. The T/C (dose: 400.0 mg/kg/injection, schedule: Q01DX001 (ip), vehicle: water) was 104 % of control.
With `O=C1c2ccccc2C(=O)N1CC(O)CCl` (configuration not stated) the T/C (dose: 50.0 mg/kg/injection, schedule: Q01DX009 (ip), vehicle: saline with Tween-80) was 93 % of control, the T/C [1] was 91 % of control and the T/C [11] was 93 % of control. The T/C [2] was 102 % of control, the T/C [12] was 90 % of control and the T/C [3] was 96 % of control.
With `CCOc1ccccc1NC(=O)Nc1cccc(Cl)c1` the T/C [7] was 100 % of control, the T/C (dose: 200.0 mg/kg/injection, schedule: Q01DX009 (ip), vehicle: Klucel (hydroxypropylcellulose) (HPC)) was 94 % of control and the T/C [8] was 100 % of control. For the same molecule, the T/C (dose: 400.0 mg/kg/injection, schedule: Q01DX009 (ip), vehicle: Klucel (hydroxypropylcellulose) (HPC)) was 97 % of control and the T/C [9] was 104 % of control.
For `CC(=O)OC1OC2COC(C)(C)OCC2C(OC(C)=O)C1OC(C)=O` (configuration not stated), the T/C [13] was 96 % of control and the T/C [14] was 104 % of control.
In the case of `Cc1ccc(S(=O)(=O)N(CCCBr)c2ccc(C3(CCl)OCCO3)cc2)cc1`, the T/C (dose: 100.0 mg/kg/injection, schedule: Q01DX001 (ip), vehicle: Klucel (hydroxypropylcellulose) (HPC)) is reported as 91 % of control, the T/C (dose: 200.0 mg/kg/injection, schedule: Q01DX001 (ip), vehicle: Klucel (hydroxypropylcellulose) (HPC)) is reported as 91 % of control and the T/C (dose: 400.0 mg/kg/injection, schedule: Q01DX001 (ip), vehicle: Klucel (hydroxypropylcellulose) (HPC)) is reported as 91 % of control.
In the case of `C/C=C1/C[C@@H](C)[C@@](C)(O)C(=O)OCC2=CCN3CC[C@@H](OC1=O)[C@@H]23`, the T/C (dose: 10.0 mg/kg/injection, schedule: Q01DX015 (ip), vehicle: carboxymethylcellulose (CMC)) is reported as 93 % of control, the T/C (dose: 20.0 mg/kg/injection, schedule: Q01DX015 (ip), vehicle: carboxymethylcellulose (CMC)) is reported as 96 % of control and the T/C (dose: 30.0 mg/kg/injection, schedule: Q01DX015 (ip), vehicle: carboxymethylcellulose (CMC)) is reported as 98 % of control. For the same molecule, the T/C [10] was 105 % of control.
In the case of `CC(C)(NC(=O)N(CCCl)N=O)C(=O)O`, the T/C (dose: 15.0 mg/kg/injection, schedule: Q01DX001 (ip), vehicle: saline with Tween-80) is reported as 103 % of control, the T/C (dose: 23.0 mg/kg/injection, schedule: Q01DX001 (ip), vehicle: saline with Tween-80) is reported as 115 % of control and the T/C (dose: 36.0 mg/kg/injection, schedule: Q01DX001 (ip), vehicle: saline with Tween-80) is reported as 119 % of control. The T/C (dose: 119.0 mg/kg/injection, schedule: Q01DX001 (ip), vehicle: saline with Tween-80) was 227 % of control, the T/C (dose: 178.0 mg/kg/injection, schedule: Q01DX001 (ip), vehicle: saline with Tween-80) was 339 % of control and the T/C (dose: 266.0 mg/kg/injection, schedule: Q01DX001 (ip), vehicle: saline with Tween-80) was 123 % of control. For the same molecule, the T/C [15] was 352 % of control.
For `C1=CCC2CN(CCCN3CCOCC3)CC2C1` (configuration not stated), the T/C [13] was 103 % of control, the T/C [14] was 108 % of control and the T/C [15] was 105 % of control.
